Experimental data published in PubChem BioAssay AID179 (DTP/NCI, 2004).
Activity calls are given as the source filed them.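 Rule for the calls: active = compounds giving half or more protection of infected cells from virus-caused growth loss, again on retest; inactive = the rest.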

Test system: CEM cells HIV-1 protection, formazan growth assay
Test: NCI AIDS Antiviral Assay
Conditions: for IC50: measured here: growth of uninfected CEM cells
Procedure: The ability of compounds to protect human CEM cells from HIV-1 infection is measured as a screen for new compounds capable of inhibiting the HIV virus. Five concentrations of drug were tested on uninfected and infected cells and cell growth was measured using a soluble formazan assay. […] Compounds that provided at least 50% protection were retested. Compounds that provided at least 50% protection on retest were listed as moderately active. Compounds that reproducibly provided 100% protection were listed as confirmed active. […] Note that the inability to provide protection could be due to toxicity.

## CC[C@H](OCc1ccccc1)/C(C)=C/C[C@@H](C)CO
  EC50: > 27.5 µM
  IC50: > 27.5 µM

## CC1C(=O)N(c2ccccc2)NC12CCCc1ccccc12 (stereo unspecified)
  EC50: > 200 µM
  IC50: 91.2 µM

## CC1OC2COC(C)OC2C(C2CN2)O1 (stereo unspecified)
  EC50: > 933 µM
  IC50: 589 µM

## CC1OC(OC2C(O[C@@H]3C[C@@H]4CC[C@@H]5[C@H](CC[C@]6(C)[C@@H]7[C@H](C[C@@H]56)O[C@]5(CC[C@@H](C)CO5)[C@H]7C)[C@@]4(C)C[C@H]3O)OC(CO)C(OC3OC(CO)C(O)C(O)C3O)C2O)C(O)C(O)C1O (stereo partly specified)
  EC50: > 10 µM
  IC50: 1.82 µM

## CC(=O)OC[C@H]1CN(OC(C)=O)C[C@@H](n2cc(C)c(=O)[nH]c2=O)O1
  EC50: > 200 µM
  IC50: > 200 µM

## COc1ccc2c(OC)c3ccoc3nc2c1O
  EC50: > 50.1 µM
  IC50: 32.4 µM

## O=C1OCCSCCOCCSCCOC(=O)c2cccc1n2
  outcome: inactive

## NCCCCC(NC(=O)C(N)Cc1ccc(O)cn1)C(=O)O (stereo unspecified)
  EC50: > 200 µM
  IC50: > 200 µM

## CC(O)(c1ccc(OCCC[N+](C)(C)C)cc1)C(C)(O)c1ccc(OCCC[N+](C)(C)C)cc1 (stereo unspecified)
  EC50: > 1820 µM
  IC50: 794 µM

## O=C(OCCN=c1c2ccccc2ccc2ccccc12)c1ccc([N+](=O)[O-])cc1
  EC50: > 200 µM
  IC50: > 200 µM

## CCOC(=O)C1Nc2ccc([N+](=O)[O-])cc2[C@H]2OCC[C@@H]12 (stereo partly specified)
  EC50: > 447 µM
  IC50: > 447 µM

## CCOC(=O)C(NC(C)=O)[CH](c1ccccc1)[Sn]([c]1ccccc1)([c]1ccccc1)[c]1ccccc1 (stereo unspecified)
  EC50: > 31.6 µM
  IC50: 7.08 µM

## COc1ccc(OC)c(NC(=O)C(=O)C(C(C)=O)c2nc3ccc(Cl)cc3[nH]c2=O)c1 (stereo unspecified)
  EC50: > 81.3 µM
  IC50: > 81.3 µM

## CCCCN1C(=O)[C@@H]2[C@H](c3ccccc3O)C(c3ccccc3O)[C@@H]2C1=O (stereo partly specified)
  EC50: > 138 µM
  IC50: 30.2 µM

## CCOC(=O)C(C(=O)OCC)C(=S)NC1OC(COC(C)=O)C(OC(C)=O)C(OC(C)=O)C1OC(C)=O (stereo unspecified)
  EC50: > 200 µM
  IC50: > 200 µM

## O=S(CCc1ccccc1)Nc1ccccc1 (stereo unspecified)
  EC50: > 200 µM
  IC50: > 200 µM

## CCOC(C)CCCS(=O)(=O)O (stereo unspecified)
  EC50: > 200 µM
  IC50: > 200 µM

## COc1ccccc1NC(=O)C1=C(C)NC(C)=C(C(=O)Nc2ccccc2OC)C1c1ccco1
  outcome: inactive

## CCCCCC(C)(O)C1=NCCN1 (stereo unspecified)
  EC50: > 200 µM
  IC50: > 200 µM

## Cc1ccc(S(=O)(=O)N2CCC(C(=O)O)(c3ccccc3)CC2)cc1
  EC50: > 182 µM
  IC50: > 182 µM

## COc1cc(CC2C(=O)NC(=O)NC2=O)ccc1OCc1ccccc1
  outcome: inactive

## COCC(OC)C(CC=C(C#N)C#N)OC (stereo unspecified)
  EC50: > 44.7 µM
  IC50: > 44.7 µM

## CC(C)(Sc1cc(C(C)(C)C)c(O)c(C(C)(C)C)c1)Sc1cc(C(C)(C)C)c(O)c(C(C)(C)C)c1
  EC50: > 26.3 µM
  IC50: > 26.3 µM

## Cc1ccc(NC(=O)Nc2sc(=S)c3c(c2C#N)CCCC3)c(C)c1
  EC50: > 58.9 µM
  IC50: > 58.9 µM

## Cc1[nH]c(-c2ccccc2)c(O)c1C(=O)OC12CC3CC(CC(C3)C1)C2
  EC50: > 200 µM
  IC50: 30.9 µM

## N#Cc1ccc(C2OCC3CC=CCC3CO2)cc1 (stereo unspecified)
  EC50: > 53.7 µM
  IC50: > 53.7 µM

## CC(C)OP(=O)(CN(C)/C(F)=N\C(F)(F)F)OC(C)C
  EC50: > 200 µM
  IC50: > 200 µM

## O=C(Nc1nc2ccccc2n1Cc1ccccc1)NC12CC3CC(CC(C3)C1)C2
  EC50: > 200 µM
  IC50: > 200 µM

## C1=Nc2ccccc2Cn2nncc21
  EC50: > 1350 µM
  IC50: 21.9 µM

## CCOC(=O)N/N=C(/N)c1cccc(Br)c1
  EC50: > 200 µM
  IC50: > 200 µM

## CC(=O)OCC1OC(n2c(=S)n(-c3ccccc3)c(=O)c3cc(Br)cc(Br)c32)C(OC(C)=O)C(OC(C)=O)C1OC(C)=O (stereo unspecified)
  EC50: > 18.2 µM
  IC50: > 18.2 µM

## Cc1nc2c(c(=O)[nH]1)OCN(C)C2
  EC50: > 200 µM
  IC50: 148 µM

## Cc1nc2c(=O)n(C)c(=O)nc-2n(-c2ccc(Cl)cc2)c1C
  outcome: inactive

## CNC(=S)Nc1ccc(OC)c2ccccc12
  EC50: > 200 µM
  IC50: > 200 µM

## O=S(=O)(N=S(c1ccccc1)c1ccccc1)c1ccccc1
  EC50: > 145 µM
  IC50: > 145 µM
